Laboratory results as given in patent publication US20230133958A1, “COMPOUNDS USEFUL IN MODULATING EGFR AND PI3K” (Mekanistic Therapeutics LLC, priority 2021, published 2023).

Key:
MTOR = MTOR (Homo sapiens, UniProt P42345); assay: Z'-LYTE / Adapta biochemical kinase assay, MTOR
Description: (§1) The Z′-LYTE® biochemical assay employs a fluorescence-based, coupled-enzyme format and is based on the differential sensitivity of phosphorylated and non-phosphorylated peptides to proteolytic cleavage. The peptide substrate is labeled with two fluorophores—one at each end—that make up a FRET pair. In the primary reaction, the kinase transfers the gamma-phosphate of ATP to a single tyrosine, serine or threonine residue in a synthetic FRET-peptide. In the secondary reaction, a site-specific protease recognizes and cleaves non-phosphorylated FRET-peptides. Phosphorylation of FRET-peptides suppresses cleavage by the Development Reagent. […] A ratiometric method, which calculates the ratio (the Emission Ratio) of donor emission to acceptor emission after excitation of the donor fluorophore at 400 nm, is used to quantitate reaction progress.
(§2) A significant benefit of this ratiometric method for quantitating reaction progress is the elimination of well-to-well variations in FRET-peptide concentration and signal intensities. […]
(§3) Both cleaved and uncleaved FRET-peptides contribute to the fluorescence signals and therefore to the Emission Ratio. The extent of phosphorylation of the FRET-peptide can be calculated from the Emission Ratio. […]

HER2 = HER2 (Homo sapiens, UniProt P04626); assay: Z'-LYTE / Adapta biochemical kinase assay, HER2
Description: as §1, §2, §3

PI3Kβ = PI3Kβ (Homo sapiens, UniProt P42338); assay: Z'-LYTE / Adapta biochemical kinase assay, PI3Kβ
Description: as §1, §2, §3

HER4 = HER4 (Homo sapiens, UniProt Q15303); assay: Z'-LYTE / Adapta biochemical kinase assay, HER4
Description: as §1, §2, §3

P13Kγ = P13Kγ (Homo sapiens, UniProt P48736); assay: Z'-LYTE / Adapta biochemical kinase assay, PI3Kγ
Description: as §1, §2, §3

P13Kδ = P13Kδ (Homo sapiens, UniProt O00329); assay: Z'-LYTE / Adapta biochemical kinase assay, PI3Kδ
Description: as §1, §2, §3

Chain of P13Kγ (P48736 whole entry, stated change not applied): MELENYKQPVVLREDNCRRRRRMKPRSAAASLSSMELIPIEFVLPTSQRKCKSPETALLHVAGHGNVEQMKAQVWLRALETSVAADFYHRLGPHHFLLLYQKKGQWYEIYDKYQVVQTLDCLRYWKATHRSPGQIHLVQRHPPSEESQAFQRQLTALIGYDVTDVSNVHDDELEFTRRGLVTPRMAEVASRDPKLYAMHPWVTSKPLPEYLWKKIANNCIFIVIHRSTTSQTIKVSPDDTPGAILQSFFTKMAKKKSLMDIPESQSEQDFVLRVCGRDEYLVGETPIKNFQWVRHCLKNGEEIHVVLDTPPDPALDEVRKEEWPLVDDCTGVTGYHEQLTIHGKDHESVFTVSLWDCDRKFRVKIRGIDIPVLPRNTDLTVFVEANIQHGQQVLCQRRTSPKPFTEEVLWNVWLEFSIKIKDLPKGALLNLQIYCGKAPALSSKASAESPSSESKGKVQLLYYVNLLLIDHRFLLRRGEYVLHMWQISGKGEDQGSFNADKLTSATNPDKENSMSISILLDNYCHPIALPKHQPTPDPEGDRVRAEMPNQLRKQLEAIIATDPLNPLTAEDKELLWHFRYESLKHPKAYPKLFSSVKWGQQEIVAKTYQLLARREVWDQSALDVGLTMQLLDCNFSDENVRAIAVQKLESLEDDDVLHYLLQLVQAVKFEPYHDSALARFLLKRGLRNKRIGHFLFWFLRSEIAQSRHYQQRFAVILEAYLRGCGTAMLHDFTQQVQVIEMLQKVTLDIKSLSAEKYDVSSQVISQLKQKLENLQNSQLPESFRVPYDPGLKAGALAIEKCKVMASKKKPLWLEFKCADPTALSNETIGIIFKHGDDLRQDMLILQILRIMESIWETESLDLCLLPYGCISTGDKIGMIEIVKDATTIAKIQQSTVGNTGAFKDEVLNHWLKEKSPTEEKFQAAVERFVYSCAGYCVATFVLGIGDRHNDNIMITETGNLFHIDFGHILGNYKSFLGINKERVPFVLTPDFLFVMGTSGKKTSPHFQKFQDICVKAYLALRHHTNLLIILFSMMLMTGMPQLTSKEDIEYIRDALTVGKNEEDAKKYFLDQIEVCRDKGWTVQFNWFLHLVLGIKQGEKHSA
Chain of P13Kδ (O00329 whole entry, stated change not applied): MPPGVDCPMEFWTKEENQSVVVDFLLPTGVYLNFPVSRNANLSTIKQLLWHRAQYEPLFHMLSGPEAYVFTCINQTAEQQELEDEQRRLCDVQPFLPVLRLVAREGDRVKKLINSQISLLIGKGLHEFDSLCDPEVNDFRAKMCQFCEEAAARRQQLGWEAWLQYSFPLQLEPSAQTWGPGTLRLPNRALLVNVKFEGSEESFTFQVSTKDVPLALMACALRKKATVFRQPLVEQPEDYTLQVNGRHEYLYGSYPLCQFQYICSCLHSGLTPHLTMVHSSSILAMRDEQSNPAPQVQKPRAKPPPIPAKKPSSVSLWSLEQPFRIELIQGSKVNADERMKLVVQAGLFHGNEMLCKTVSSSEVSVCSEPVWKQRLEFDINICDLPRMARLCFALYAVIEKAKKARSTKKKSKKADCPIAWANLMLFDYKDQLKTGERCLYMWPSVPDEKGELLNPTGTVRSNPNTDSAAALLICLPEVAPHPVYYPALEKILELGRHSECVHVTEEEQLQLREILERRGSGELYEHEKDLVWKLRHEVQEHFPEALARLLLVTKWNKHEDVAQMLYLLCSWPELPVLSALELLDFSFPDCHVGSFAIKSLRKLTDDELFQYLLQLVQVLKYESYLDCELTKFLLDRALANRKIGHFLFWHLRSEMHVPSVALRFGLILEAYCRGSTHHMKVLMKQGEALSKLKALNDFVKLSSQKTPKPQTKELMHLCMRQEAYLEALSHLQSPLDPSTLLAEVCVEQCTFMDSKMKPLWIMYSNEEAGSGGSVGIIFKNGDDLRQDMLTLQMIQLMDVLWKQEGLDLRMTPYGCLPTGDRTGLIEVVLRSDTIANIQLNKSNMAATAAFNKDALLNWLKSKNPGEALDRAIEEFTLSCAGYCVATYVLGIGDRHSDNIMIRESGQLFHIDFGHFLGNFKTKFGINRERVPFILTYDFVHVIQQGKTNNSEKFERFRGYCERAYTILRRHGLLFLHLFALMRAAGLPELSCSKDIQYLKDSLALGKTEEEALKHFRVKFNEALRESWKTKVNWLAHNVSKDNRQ
Chain of P13Kδ (P27986 2-724 partner limits assumed): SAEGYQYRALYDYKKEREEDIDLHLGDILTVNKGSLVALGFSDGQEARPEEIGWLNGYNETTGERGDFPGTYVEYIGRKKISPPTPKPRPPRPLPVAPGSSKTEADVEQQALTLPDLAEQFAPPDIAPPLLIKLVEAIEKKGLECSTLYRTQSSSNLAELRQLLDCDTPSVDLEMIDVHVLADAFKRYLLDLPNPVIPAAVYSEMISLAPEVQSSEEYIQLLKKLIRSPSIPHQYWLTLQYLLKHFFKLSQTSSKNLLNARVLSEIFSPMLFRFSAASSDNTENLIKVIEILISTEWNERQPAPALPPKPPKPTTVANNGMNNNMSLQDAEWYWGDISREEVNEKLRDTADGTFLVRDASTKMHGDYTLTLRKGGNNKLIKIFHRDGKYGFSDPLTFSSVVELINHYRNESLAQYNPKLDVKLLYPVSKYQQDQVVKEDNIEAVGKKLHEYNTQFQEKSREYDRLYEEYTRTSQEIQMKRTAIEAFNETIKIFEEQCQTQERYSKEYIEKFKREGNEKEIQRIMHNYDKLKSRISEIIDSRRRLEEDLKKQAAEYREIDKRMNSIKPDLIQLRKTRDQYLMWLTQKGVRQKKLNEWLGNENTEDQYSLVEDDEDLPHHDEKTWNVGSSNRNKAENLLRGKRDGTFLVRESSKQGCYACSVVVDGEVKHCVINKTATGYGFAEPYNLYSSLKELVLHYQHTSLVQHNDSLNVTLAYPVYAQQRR
Chain of HER2 (P04626 23-1255): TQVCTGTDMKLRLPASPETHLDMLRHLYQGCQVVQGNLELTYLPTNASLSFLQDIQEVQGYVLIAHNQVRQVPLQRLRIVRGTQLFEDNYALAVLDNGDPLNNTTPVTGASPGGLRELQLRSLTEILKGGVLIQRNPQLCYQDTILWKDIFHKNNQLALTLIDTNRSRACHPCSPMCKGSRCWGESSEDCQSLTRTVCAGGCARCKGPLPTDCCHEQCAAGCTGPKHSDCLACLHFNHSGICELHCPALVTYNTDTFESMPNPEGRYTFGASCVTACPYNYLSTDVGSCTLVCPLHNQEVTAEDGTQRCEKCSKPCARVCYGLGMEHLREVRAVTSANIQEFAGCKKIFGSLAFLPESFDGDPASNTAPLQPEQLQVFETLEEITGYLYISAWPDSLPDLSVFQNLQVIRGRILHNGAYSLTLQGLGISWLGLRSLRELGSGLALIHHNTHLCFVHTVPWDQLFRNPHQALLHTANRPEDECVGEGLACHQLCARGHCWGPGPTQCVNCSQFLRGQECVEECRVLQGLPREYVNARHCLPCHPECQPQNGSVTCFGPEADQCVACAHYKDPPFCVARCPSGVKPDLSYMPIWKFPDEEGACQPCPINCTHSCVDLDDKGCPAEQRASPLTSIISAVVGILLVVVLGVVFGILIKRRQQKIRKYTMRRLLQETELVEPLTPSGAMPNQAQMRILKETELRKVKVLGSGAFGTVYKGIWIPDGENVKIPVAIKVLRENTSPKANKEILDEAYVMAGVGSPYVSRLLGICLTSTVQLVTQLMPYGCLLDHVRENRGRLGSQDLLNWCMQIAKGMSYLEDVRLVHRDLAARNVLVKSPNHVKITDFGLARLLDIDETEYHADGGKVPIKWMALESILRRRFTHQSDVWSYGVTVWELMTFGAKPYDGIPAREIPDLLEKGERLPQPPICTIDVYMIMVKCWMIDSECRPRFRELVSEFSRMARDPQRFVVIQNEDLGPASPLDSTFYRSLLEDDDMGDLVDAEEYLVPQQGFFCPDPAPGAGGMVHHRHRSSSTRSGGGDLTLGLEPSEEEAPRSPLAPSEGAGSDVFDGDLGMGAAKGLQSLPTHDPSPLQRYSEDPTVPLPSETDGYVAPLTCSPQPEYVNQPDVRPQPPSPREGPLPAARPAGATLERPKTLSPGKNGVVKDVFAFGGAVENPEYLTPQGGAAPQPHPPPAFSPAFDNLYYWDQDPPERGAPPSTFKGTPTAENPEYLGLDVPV

CS(=O)(=O)Nc1cc(-c2ccc3ncnc(Nc4cccc(Cl)c4F)c3c2)cnc1Cl [Compound 6, N-[2-chloro-5-[4-(3-chloro-2-fluoro-anilino)quinazolin-6-yl]-3-pyridyl] methanesulfonamide]
IC50 (MTOR): 2 to 20 nM
IC50 (HER2): > 200 nM
IC50 (PI3Kβ): 20 to 200 nM
IC50 (HER4): > 200 nM
IC50 (P13Kγ): ≤ 2 nM
IC50 (P13Kδ): ≤ 2 nM
